In general, IC50 refers to the concentration that gives 50% inhibition. Read a low IC50 as greater potency in that assay. Usually inhibition stands for the change of the read-out against control, counted positive when it falls.

The target in test [1] is T1, DDR1 phosphorylation in T-47D (ATCC, HTB-133) cells (Homo sapiens, UniProt Q08345).
T1 construct: host or cells: T-47D
The test is described as follows: Measurement of DDR1 phosphorylation suppression rate by using T-47D cells (p-DDR1 ELISA). Type of test: cell-based. The note with it: collagen Type I 10 μg/ml, p-DDR1 (panTyr) ELISA. As to the method: Biological Example 2: Measurement of DDR1 Phosphorylation Suppression Rate by Using T-47D (ATCC, HTB-133) cells
T-47D cells should be in culture for at least 7 days before using in the assay.
Cell culture medium: RPMI 1640 (HyClone) containing 10% Heat-FBS (HyClone) was prepared.
Assay medium: RPMI 1640 containing 0.1% BSA (solarbio) was prepared.
Collagen Type I (rat tail) solution: Assay medium containing 200 μg/mL Collagen I, rat tail (Gibco) was prepared.
Cell lysis buffer: a solution containing IX cell lysis buffer (CST) and 1× protease and phosphatase inhibitor cocktail (Thermofisher) was prepared by using ddH2O.
• 1. Collect cells into tubes and centrifuge at 1200 rpm for 5 min, at room temperature. Re-suspend the cells in cell culture medium pre-warmed to room temperature. • 2. Count cells and suspend at a density of 2×10^5/ml of cell culture medium. Plate the cells at 100 μL per well (Corning 3599 96-well plate, 2×10^4 cells per well final), mixing the cells well between each draw of the pipettor. • 3. Put lid on cell plate and place into the incubator at 37° C., 5% CO2 • 4. Culture cell overnight
• 1. Remove the plate from the incubator • 2. Cell medium is replaced with the 90 μL Assay medium.
• 1. Compound plates are pre-titrated using DMSO (10-fold dilution for 6 points) • 2. Dilute test compound using assay medium; Transfer 1 μL compound to other 96 well plate and then add 49 μL assay medium to each well (50 fold dilution). • 3. Add 5 μL the diluted test compound solution to the appropriate wells by pipettor. Compound final concentration is start from […] and DMSO final concentration is 0.1 • 4. Tap the plates gently to mix in compound. Reseal the plate with a lid and place in the incubator again, for 24 h.
• 1. Diluted collagen Type I in assay medium to the 200 μg/ml concentration • 2. Using the pipettor adds 5 μL of 200 μg/mL collagen Type I solution to the cell plate (compound well and High control well, collagen final conc. is 10 μg/ml). Add assay medium buffer to the control wells (low control well) • 3. Reseal the plate with a lid and place in the incubator. Incubate 24 h for collagen type I
• 1. After incubation, add 100 µL per well Cell lysis buffer. • 2. Incubate 30 min on ice, then freezing to −80° C. to get the fully cell lysates. • 3. Transfer cell lysates to new plate • 4. Centrifuge for 30 min (×4000 rpm) at 4° C. Then transfer the supernatant to a new plate.
p-DDR1 (panTyr) ELISA kit (CST) was used in the study. The measurement was carried out according to the attached instruction.
(§1) The inhibition rate (%) in the test compound group was calculated based on the following mathematical formula.
% inhibition=100−100*(assay value of test compound−A)/(B−A) [Math. 2]
A: average value of low control group B: average value of high control group Values of 50% inhibition rate (IC50 values) of the test compound were calculated from the inhibition curve based on the inhibition rate of the test compounds in each concentration.
For orientation: In an ELISA, binding on a coated surface is turned into a signal by an enzyme label.

Another test deals with T2, DDR1 (Homo sapiens, UniProt Q08345).
T2 construct: purchased Invitrogen
Briefly: Measurement of DDR1 inhibitory activity (LanthaScreen system, in vitro test). The test is classed as binding. The conditions noted are these: GST-DDR1, Kinase tracer 178. The procedure: Biological Experiment Example 1: Measurement of an DDR1 Inhibitory Activity (In Vitro Test)
An DDR1 enzyme inhibitory activity was measured by using LanthaScreen (registered trademark) system (Invitrogen) based on the attached instruction. The reagents used are shown below.
Assay buffer: 5× Kinase buffer A (Invitrogen) was diluted 5-fold with ddH2O.
1× Kinase Buffer A: 50 mmol/L HEPES pH 7.5, 10 mmol/L MgCl2, 1 mmol/L EGTA, 0.01% Brij-35.
2×DDR1 Solution: a solution containing […] GST-DDR1 (Invitrogen) was prepared by using Assay buffer.
2× Tracer/antibody solution: a solution containing 20 nmol/L Kinase tracer 178 (Invitorgen) and […] Eu-Anti-GST Antibody (Invitorogen) was prepared by using Assay buffer. Test compound solution: a solution containing a test compound of 2-fold concentration with respect to the final concentration was prepared by 50-fold diluting a DMSO solution of test compound of each concentration with the Assay buffer.
• 1 Add 5 μL 2×DDR1 Solution to proxiplate (PerkinElmer) • 2 Add 5 μL test compound solution to proxiplate • 3 Incubate for 15 min at RT • 4 Add 5 μL 2× Tracer/Antibody solution to all well Incubate 1 h at RT • 6 Read LANCE Eu on Envision (PerkinElmer) (Ex: 320 nm/Em 665 nm & 615 nm)
In the low control group, 5 μL Assay buffer was added instead of 5 μL 2×DDR1 Solution and the final 1% DMSO solution was added instead of test compound solution.
In the high control group, the final 1% DMSO solution was added instead of test compound solution.
as §1
% inhibition=100−100*(assay value of test compound−A)/(B−A) [Math. 1]
A: average value of low control group B: average value of high control group
Values of 50% inhibition rate (IC50 values) of the test compound were calculated from the inhibition curve based on the inhibition rate of the test compounds in each concentration.
For orientation: Time-resolved FRET reads energy transfer from a long-lived donor to a nearby acceptor.

For another test, the target named is T3, Flt-3 (Homo sapiens, UniProt P36888).
T3 sequence (P36888 27-993): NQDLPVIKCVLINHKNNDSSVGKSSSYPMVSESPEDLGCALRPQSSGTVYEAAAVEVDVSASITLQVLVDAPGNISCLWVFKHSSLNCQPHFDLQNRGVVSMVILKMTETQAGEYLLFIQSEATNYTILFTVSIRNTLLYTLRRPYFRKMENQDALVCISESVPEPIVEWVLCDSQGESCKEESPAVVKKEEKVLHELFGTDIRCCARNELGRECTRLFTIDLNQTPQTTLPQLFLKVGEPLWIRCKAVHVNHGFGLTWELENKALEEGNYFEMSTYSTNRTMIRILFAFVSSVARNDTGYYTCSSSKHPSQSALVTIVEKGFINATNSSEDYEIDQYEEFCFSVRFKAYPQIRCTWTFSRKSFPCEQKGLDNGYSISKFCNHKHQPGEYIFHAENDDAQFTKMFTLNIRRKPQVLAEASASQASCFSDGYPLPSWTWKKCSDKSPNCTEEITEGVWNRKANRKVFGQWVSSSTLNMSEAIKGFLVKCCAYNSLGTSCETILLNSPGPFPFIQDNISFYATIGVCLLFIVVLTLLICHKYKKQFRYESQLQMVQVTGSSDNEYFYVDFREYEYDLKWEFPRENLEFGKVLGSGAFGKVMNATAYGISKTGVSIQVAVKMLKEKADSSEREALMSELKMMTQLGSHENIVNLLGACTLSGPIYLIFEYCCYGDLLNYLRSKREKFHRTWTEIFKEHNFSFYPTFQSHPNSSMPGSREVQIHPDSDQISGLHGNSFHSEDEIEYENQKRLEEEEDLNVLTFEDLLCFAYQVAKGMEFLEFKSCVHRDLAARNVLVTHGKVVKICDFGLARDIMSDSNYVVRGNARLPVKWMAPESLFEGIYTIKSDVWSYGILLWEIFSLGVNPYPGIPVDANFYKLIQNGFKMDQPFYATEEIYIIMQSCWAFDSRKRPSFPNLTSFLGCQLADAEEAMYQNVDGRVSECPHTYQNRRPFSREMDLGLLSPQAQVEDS
The test is described as follows: Evaluation of kinase selectivity: % inhibition rate of Flt-3 at 1 μmol/L. Type of test: biochemical. The conditions noted are these: compound at 1 μmol/L. The procedure: (§2) Biological Example 3: Evaluation of Kinase Selectivity
(§3) % inhibition rate with respect to various kinases (for example KDR etc.) of 1 μmol/L the test compound is measured.
(§4) A general assay condition (substrates, cofactor, ATP concentrations and reaction time etc.) suitable for respective kinase enzyme inhibition activity test is used.
(§5) 1 Prepare the test compounds into 1 mmol/L DMSO solution. 2 Transfer 20 nL of stock to 384 assay plate. Use DMSO as High and Low controls.
(§6) 1 Prepare the 1.3× Enzyme solution containing enzyme, substrate and cofactors. 2 Add 15 μL of 1.3× Enzyme solutions to each well and incubate the plate at room temperature for 30 min. 3 Initiate the reaction by adding 5 μL of 4×ATP solution. The final volume of each well should be 20 μL. 4 Incubate the plate at room temperature for reaction and add 75 μL of stopping buffer (containing 0.5 mol/L EDTA) to terminate the reaction.
(§7) Analyze the sample of each well using EZ reader (PerkinElmer).
(§8) Calculate the % Inhibition using read conversion ratio (CR) following the equation as below.
(§9) Use well treated with DMSO as High Control Use well without enzyme as Low Control

The target in another test is KDR (Homo sapiens, UniProt P35968). Briefly: Evaluation of kinase selectivity: % inhibition rate of KDR at 1 μmol/L. Type of test: biochemical. The conditions noted are these: compound at 1 μmol/L. The procedure:
as §2, §3, §4, §5, §6, §7, §8, §9

Another test deals with ROCK (Homo sapiens, UniProt O75116). The test is described as follows: Evaluation of kinase selectivity: % inhibition rate of ROCK at 1 μmol/L. Type of test: biochemical. The conditions noted are these: compound at 1 μmol/L; read-out: % inhibition rate of ROCK2. The procedure: as §2, §3, §4, §5, §6, §7, §8, §9
Chain of ROCK (O75116 whole entry): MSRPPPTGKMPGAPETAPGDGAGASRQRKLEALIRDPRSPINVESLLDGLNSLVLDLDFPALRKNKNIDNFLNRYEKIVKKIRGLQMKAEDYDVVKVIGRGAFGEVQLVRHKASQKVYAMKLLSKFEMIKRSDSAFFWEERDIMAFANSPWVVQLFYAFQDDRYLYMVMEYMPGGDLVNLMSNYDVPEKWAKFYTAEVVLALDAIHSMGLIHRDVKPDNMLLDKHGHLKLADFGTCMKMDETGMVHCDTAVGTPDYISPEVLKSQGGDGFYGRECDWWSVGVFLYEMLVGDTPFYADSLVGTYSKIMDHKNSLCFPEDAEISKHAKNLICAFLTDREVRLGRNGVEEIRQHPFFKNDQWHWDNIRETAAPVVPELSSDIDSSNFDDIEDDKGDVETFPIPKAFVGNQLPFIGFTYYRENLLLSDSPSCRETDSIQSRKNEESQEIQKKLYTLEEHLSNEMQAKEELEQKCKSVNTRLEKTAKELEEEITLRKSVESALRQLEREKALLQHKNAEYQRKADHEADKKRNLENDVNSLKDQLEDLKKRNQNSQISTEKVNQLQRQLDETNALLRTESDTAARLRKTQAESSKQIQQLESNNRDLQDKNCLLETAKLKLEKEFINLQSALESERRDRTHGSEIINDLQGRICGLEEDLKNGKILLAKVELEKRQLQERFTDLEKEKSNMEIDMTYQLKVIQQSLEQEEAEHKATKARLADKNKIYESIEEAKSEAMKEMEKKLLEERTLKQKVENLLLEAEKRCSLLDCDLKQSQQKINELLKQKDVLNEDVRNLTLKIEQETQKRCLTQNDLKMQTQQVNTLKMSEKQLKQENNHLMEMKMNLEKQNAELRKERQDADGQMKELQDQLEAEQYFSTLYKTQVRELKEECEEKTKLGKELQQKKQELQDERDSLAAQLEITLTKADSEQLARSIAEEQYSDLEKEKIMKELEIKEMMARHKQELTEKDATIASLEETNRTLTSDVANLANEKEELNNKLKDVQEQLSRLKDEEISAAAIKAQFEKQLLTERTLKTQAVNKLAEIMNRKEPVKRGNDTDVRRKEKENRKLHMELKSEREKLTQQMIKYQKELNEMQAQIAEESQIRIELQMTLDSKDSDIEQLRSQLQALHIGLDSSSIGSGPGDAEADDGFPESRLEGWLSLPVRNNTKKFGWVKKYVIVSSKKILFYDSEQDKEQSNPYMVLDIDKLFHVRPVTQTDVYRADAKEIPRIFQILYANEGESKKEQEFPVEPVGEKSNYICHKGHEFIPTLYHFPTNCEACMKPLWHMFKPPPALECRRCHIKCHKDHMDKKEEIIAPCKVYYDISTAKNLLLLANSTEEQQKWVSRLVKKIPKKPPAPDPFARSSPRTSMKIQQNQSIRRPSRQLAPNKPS

Chain of KDR (P35968 20-1356, species assumed): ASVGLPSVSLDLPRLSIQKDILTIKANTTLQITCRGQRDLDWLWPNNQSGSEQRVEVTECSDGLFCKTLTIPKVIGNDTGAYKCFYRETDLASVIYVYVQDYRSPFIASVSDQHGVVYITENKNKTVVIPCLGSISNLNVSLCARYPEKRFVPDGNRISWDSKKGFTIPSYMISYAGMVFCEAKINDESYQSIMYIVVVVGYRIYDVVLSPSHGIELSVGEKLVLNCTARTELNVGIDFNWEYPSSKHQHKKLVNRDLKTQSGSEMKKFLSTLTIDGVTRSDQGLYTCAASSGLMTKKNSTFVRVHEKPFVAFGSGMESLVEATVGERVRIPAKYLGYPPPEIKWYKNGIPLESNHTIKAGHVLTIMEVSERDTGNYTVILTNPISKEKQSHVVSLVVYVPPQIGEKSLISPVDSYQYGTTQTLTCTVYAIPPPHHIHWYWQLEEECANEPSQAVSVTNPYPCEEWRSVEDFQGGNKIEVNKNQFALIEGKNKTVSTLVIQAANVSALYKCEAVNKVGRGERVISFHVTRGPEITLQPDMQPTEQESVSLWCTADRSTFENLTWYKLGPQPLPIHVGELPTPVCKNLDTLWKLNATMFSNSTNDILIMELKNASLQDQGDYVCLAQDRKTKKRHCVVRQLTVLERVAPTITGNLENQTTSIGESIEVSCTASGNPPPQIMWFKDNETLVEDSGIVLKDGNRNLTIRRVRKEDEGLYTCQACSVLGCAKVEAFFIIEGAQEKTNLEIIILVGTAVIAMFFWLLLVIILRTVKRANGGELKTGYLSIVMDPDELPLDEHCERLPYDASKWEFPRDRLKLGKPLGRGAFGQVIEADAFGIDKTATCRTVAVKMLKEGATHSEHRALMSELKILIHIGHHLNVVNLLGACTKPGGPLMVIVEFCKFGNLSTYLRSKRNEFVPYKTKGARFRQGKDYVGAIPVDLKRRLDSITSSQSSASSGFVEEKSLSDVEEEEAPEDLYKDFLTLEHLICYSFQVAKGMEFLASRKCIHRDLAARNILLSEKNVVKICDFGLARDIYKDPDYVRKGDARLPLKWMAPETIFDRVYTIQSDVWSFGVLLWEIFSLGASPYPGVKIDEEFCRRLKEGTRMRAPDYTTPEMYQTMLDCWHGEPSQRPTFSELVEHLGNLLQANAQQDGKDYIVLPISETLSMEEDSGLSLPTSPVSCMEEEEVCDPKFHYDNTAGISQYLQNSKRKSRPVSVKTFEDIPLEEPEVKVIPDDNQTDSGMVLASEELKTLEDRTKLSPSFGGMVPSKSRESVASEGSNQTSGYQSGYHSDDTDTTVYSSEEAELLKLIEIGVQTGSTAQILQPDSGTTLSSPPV
T1 sequence (Q08345 19-913): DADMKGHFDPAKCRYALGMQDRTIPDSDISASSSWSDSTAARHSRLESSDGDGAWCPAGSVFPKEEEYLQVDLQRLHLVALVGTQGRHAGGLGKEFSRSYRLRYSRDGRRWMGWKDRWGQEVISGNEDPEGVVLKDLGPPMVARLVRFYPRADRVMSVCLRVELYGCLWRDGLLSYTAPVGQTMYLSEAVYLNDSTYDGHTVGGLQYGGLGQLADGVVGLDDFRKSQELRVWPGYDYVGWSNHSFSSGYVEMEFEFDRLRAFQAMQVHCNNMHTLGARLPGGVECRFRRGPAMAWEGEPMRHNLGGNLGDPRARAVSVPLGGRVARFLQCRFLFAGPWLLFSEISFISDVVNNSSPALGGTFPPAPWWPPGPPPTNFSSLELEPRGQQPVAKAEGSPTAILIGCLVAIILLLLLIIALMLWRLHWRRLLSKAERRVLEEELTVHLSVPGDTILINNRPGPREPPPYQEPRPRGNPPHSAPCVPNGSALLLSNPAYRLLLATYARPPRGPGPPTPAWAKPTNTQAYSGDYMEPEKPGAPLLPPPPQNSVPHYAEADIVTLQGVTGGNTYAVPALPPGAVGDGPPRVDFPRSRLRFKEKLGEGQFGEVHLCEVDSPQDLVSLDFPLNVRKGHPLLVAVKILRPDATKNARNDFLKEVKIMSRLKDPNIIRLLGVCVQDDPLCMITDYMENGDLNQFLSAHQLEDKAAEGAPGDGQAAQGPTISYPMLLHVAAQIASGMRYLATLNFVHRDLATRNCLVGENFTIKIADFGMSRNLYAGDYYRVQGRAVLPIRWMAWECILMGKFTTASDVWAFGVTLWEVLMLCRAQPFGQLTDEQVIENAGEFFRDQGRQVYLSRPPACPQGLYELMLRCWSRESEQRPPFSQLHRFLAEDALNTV
T2 sequence (Q08345 19-913): as above

As for `O=C1CN(c2cncc(C(F)(F)F)c2)C(=O)N1c1ccc(Oc2cnc3[nH]ncc3c2)cc1` [Example 1(11), 3-[4-(1H-pyrazolo[3,4-b]pyridin-5-yloxy)phenyl]-1-[5-(trifluoromethyl)-3-pyridinyl]-2,4-imidazolidinedione], the IC50 (in test [1]; against DDR1) was 1 nM in each case. Moreover, the figures for the inhibition at 1 µM against Flt-3, at KDR and on ROCK were 16%, 2% and -2%, respectively.

Turning to `Cc1cc(Oc2ccnc(N)n2)ccc1N1C(=O)CN(c2cncc(C(F)(F)F)c2)C1=O` [Example 2, 3-{4-[(2-amino-4-pyrimidinyl)oxy]-2-methylphenyl}-1-[5-(trifluoromethyl)-3-pyridinyl]-2,4-imidazolidinedione], the 50% inhibitory concentration (IC50) turned out to be 3 nM in test [1] and 5 nM against DDR1. The results for the inhibition at 1 µM at Flt-3, at KDR and on ROCK were 4%, 1% and -5%, respectively.

For the compound `O=C1CN(c2cncc(C(F)(F)F)c2)C(=O)N1C12CCC(Oc3ncnc4[nH]cc(F)c34)(CC1)C2` [Example 42(1), 3-{4-[(5-fluoro-7H-pyrrolo[2,3-d]pyrimidin-4-yl)oxy]bicyclo[2.2.1]hept-1-yl}-1-[5-(trifluoromethyl)-3-pyridinyl]-2,4-imidazolidinedione], the midpoint of inhibition in test [1], the IC50, lay at 8 nM. For the same compound, the inhibition at 1 µM is -2% on Flt-3, -3% against KDR and -8% at ROCK.

`O=C1CN(c2cncc(C(F)(F)F)c2)C(=O)N1C12CCC(Oc3ncnc4[nH]ccc34)(CC1)C2` [Example 3(65), 3-[4-(7H-pyrrolo[2,3-d]pyrimidin-4-yloxy)bicyclo[2.2.1]hept-1-yl]-1-[5-(trifluoromethyl)-3-pyridinyl]-2,4-imidazolidinedione]: the concentration for half-maximal inhibition (IC50) stood at 2 nM in test [1] and 3 nM against DDR1. Moreover, the inhibition at 1 µM is 5% on Flt-3, -1% at KDR and 5% at ROCK.

Source of the values: patent US20220306640A1, “HYDANTOIN DERIVATIVE” (ONO PHARMACEUTICAL CO., LTD., priority 2019, published 2022).
